Results reported in PMC6199744, “Development of Chemical Proteomics for the Folateome and Analysis of the Kinetoplastid Folateome” (ACS Infectious Diseases, 2018).
Read-outs that look alike come from different tables or passages of the source.

Assays:
Type in all cases: binding
[1] = biological target: T1, HeLa cell extract proteins (Homo sapiens, UniProt P00558)
T1 construct: endogenous in cells; host or cells: HeLa cell extract
T1 sequence (P00558 1-417): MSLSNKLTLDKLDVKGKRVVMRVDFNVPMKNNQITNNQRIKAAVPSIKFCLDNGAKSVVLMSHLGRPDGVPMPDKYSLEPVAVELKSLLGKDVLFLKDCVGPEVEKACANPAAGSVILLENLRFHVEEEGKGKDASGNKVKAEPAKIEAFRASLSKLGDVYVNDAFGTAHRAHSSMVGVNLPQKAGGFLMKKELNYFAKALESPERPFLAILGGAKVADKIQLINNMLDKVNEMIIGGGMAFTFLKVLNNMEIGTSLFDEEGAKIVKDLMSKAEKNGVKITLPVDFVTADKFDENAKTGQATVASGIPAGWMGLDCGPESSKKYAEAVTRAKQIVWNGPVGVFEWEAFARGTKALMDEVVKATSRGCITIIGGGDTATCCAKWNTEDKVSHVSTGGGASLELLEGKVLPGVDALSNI

[2] = biological target: T2, HeLa cell extract proteins (Homo sapiens, UniProt P06730)
T2 construct: endogenous in cells; host or cells: HeLa cell extract

[3] = biological target: T3, HeLa cell extract proteins (Homo sapiens, UniProt Q14247)
T3 construct: endogenous in cells; host or cells: HeLa cell extract
T3 sequence (Q14247 1-550): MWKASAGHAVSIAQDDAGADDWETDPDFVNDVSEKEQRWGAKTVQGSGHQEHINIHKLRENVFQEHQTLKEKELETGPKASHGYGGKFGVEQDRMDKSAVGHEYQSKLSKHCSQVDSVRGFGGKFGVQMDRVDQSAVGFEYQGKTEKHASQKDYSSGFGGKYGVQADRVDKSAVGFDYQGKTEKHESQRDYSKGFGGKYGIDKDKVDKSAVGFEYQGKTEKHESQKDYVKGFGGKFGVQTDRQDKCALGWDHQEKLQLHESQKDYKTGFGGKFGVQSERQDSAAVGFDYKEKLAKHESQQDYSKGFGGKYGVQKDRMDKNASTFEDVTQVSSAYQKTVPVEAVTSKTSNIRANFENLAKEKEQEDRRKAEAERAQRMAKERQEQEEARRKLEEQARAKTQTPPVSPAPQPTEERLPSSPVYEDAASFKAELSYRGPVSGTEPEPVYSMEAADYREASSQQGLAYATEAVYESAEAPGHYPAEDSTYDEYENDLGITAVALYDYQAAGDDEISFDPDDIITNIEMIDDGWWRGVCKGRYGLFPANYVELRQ

[4] = biological target: T4, HeLa cell extract proteins (Homo sapiens, UniProt Q9H3U1)
T4 construct: endogenous in cells; host or cells: HeLa cell extract
T4 sequence (Q9H3U1 1-944): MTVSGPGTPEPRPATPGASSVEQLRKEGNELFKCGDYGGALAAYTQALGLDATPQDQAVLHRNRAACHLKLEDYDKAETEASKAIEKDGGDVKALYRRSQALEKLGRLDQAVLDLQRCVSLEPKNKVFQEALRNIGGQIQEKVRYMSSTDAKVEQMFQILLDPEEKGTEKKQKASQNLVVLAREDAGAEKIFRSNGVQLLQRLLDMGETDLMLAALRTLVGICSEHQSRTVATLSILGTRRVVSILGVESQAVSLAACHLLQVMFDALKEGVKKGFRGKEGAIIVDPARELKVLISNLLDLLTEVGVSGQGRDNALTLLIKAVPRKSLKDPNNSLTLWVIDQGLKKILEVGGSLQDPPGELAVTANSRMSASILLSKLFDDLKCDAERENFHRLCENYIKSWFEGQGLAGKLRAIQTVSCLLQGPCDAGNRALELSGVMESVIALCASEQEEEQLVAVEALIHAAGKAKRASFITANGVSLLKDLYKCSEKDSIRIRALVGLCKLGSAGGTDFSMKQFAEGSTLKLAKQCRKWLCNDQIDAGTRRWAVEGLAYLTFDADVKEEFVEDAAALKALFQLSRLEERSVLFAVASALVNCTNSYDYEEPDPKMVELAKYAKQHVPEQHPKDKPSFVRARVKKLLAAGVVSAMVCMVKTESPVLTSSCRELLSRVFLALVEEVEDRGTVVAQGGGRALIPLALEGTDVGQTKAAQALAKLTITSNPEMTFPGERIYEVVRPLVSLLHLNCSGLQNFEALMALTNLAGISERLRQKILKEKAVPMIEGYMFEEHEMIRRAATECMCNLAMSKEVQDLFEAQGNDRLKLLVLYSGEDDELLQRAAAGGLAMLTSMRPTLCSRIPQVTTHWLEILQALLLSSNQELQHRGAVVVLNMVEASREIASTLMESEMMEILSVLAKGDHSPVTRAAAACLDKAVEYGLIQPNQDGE

[5] = biological target: T5, HeLa cell extract proteins (Homo sapiens, UniProt Q9UPY5)
T5 construct: endogenous in cells; host or cells: HeLa cell extract
T5 sequence (Q9UPY5 1-501): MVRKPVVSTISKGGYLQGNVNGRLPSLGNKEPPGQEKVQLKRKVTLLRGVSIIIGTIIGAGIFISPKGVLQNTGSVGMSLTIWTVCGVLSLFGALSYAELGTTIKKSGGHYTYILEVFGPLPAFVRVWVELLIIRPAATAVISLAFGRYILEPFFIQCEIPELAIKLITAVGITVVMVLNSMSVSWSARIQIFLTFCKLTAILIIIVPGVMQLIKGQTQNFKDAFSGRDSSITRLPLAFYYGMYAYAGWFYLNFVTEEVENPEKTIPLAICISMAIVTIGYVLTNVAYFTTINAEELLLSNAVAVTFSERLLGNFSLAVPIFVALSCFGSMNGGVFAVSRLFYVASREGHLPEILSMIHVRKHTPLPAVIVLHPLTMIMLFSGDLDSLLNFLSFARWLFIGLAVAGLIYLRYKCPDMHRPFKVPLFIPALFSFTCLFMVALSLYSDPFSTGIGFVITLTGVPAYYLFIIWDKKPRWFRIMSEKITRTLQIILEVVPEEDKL

[6] = HeLa, protein PGK1 (PHOSPHOGLYCERATE KINASE 1.)

T2 sequence (P06730 whole entry): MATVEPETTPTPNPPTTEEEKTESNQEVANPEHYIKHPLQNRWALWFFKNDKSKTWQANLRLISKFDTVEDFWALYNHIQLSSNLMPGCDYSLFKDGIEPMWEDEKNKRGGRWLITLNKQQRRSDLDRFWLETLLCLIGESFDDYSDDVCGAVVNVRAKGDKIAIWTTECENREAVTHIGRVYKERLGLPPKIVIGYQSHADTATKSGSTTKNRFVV

Structure (SMILES): Nc1nc2c(c(=O)[nH]1)N(C=O)C(CNc1ccc(C(=O)N[C@@H](CCC(=O)O)C(=O)O)cc1)CN2 (some centres unmarked) [LEU, leucovorin]
- fold changes relative to vehicle control ([1]; HeLa, protein PGK1): 1.1
- fold changes relative to vehicle control ([2]; HeLa, captured protein EIF4E): 1.09
- fold changes relative to vehicle control ([3]; HeLa, captured protein CTTN): 0.99
- fold changes relative to vehicle control ([4]; HeLa, protein UNC45A): 1.07
- fold changes relative to vehicle control ([5]; HeLa, captured protein SLC7A11): 0.96

Structure (SMILES): Nc1nc2[nH]cc(CCc3ccc(C(=O)N[C@@H](CCC(=O)O)C(=O)O)cc3)c2c(=O)[nH]1 [PTX, pemetrexed]
- fold changes relative to vehicle control [1]: 1.11
- fold changes relative to vehicle control [2]: 0.99
- fold changes relative to vehicle control [3]: 0.97
- fold changes relative to vehicle control [4]: 0.99
- fold changes relative to vehicle control [5]: 0.91

Structure (SMILES): CCCCCCOc1ccc(Cc2cnc(N)nc2N)cc1 [compound 1]
- fold changes relative to vehicle control [1, 6]: 1.5 fold
- fold changes relative to vehicle control ([2]; HeLa, protein EIF4E): 0.94
- fold changes relative to vehicle control ([3]; protein CTTN, HeLa): 1.04
- fold changes relative to vehicle control ([4]; protein UNC45A, HeLa): 1.44
- fold changes relative to vehicle control ([5]; captured protein SLC7A11, HeLa): 0.98

Structure (SMILES): CCCCCCOc1cccc(Cc2cnc(N)nc2N)c1 [compound 2]
- fold changes relative to vehicle control [1, 6]: 2.59 fold
- fold changes relative to vehicle control ([2]; HeLa, protein EIF4E): 0.97
- fold changes relative to vehicle control ([3]; protein CTTN, HeLa): 1.18
- fold changes relative to vehicle control ([4]; protein UNC45A, HeLa): 1.53
- fold changes relative to vehicle control ([5]; captured protein SLC7A11, HeLa): 0.92

Structure (SMILES): Nc1nc2cccc(-c3ccccc3)c2n1Cc1ccc(Cl)c(Cl)c1 [compound 3]
- fold changes relative to vehicle control ([1]; HeLa, protein PGK1 (PHOSPH[…] 1.)): 0.8 fold
- fold changes relative to vehicle control ([2]; HeLa, protein EIF4E): 1
- fold changes relative to vehicle control ([3]; protein CTTN, HeLa): 0.94
- fold changes relative to vehicle control ([4]; protein UNC45A, HeLa): 0.97
- fold changes relative to vehicle control ([5]; captured protein SLC7A11, HeLa): 0.99

Structure (SMILES): NCCOCCOCC(=O)Nc1nc2ncc(CNc3ccc(C(=O)NC(CCC(=O)O)C(=O)O)cc3)nc2c(=O)[nH]1 (centres unmarked) [compound 6]
- fold changes relative to vehicle control ([1]; HeLa, protein PGK1): 1.28
- fold changes relative to vehicle control ([2]; HeLa, captured protein EIF4E): 1.03
- fold changes relative to vehicle control ([3]; HeLa, captured protein CTTN): 1.06
- fold changes relative to vehicle control ([4]; HeLa, protein UNC45A): 1.16
- fold changes relative to vehicle control ([5]; HeLa, captured protein SLC7A11): 0.93

Structure (SMILES): NCCCNc1ccc(C(=O)NC(CCC(=O)O)C(=O)O)cc1 (centres unmarked) [compound 7]
- fold changes relative to vehicle control ([1]; HeLa, protein PGK1): 0.92
- fold changes relative to vehicle control ([2]; HeLa, captured protein EIF4E): 1.1
- fold changes relative to vehicle control ([3]; HeLa, captured protein CTTN): 0.96
- fold changes relative to vehicle control ([4]; HeLa, protein UNC45A): 1.05
- fold changes relative to vehicle control ([5]; HeLa, captured protein SLC7A11): 0.95
